These results are taken from PubChem BioAssay AID256 (DTP/NCI, 2004).

The assay has as its system CD2F1 mice, L1210 leukemia ip, survival T/C. Nature of the assay: NCI In Vivo Anticancer Drug Screen. Data for tumor model L1210 Leukemia (intraperitoneal) in CD2F1 (CDF1) mice. The conditions noted are these: higher = longer survival. In short, it runs like this:
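In this screen, transplantable tumors were grown in mice given either the compound or its vehicle. Results were expressed as the treated measurement relative to the control measurement.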

[1] abbreviates: endpoint: mean survival time, dose: 100.0 mg/kg/injection, schedule: Q01DX009 (ip), vehicle: saline with Tween-80.
[2] abbreviates: endpoint: mean survival time, dose: 100.0 mg/kg/injection, schedule: Q04DX003 (ip), vehicle: saline with Tween-80.
[3] abbreviates: endpoint: mean survival time, dose: 200.0 mg/kg/injection, schedule: Q01DX009 (ip), vehicle: saline with Tween-80.
Setting [4] is: endpoint: mean survival time, dose: 200.0 mg/kg/injection, schedule: Q04DX003 (ip), vehicle: saline with Tween-80.
Where [5] appears, read: endpoint: mean survival time, dose: 400.0 mg/kg/injection, schedule: Q04DX003 (ip), vehicle: saline with Tween-80.
Where [6] appears, read: endpoint: mean survival time, dose: 50.0 mg/kg/injection, schedule: Q01DX009 (ip), vehicle: Klucel (hydroxypropylcellulose) (HPC).
The mark [7] stands for this setting: endpoint: mean survival time, dose: 100.0 mg/kg/injection, schedule: Q01DX009 (ip), vehicle: Klucel (hydroxypropylcellulose) (HPC).
Where [8] appears, read: endpoint: mean survival time, dose: 200.0 mg/kg/injection, schedule: Q01DX009 (ip), vehicle: Klucel (hydroxypropylcellulose) (HPC).
Where [9] appears, read: endpoint: mean survival time, dose: 100.0 mg/kg/injection, schedule: Q01DX001 (ip), vehicle: saline.
Setting [10] is: endpoint: mean survival time, dose: 200.0 mg/kg/injection, schedule: Q01DX001 (ip), vehicle: saline.
The mark [11] stands for this setting: endpoint: mean survival time, dose: 400.0 mg/kg/injection, schedule: Q01DX001 (ip), vehicle: saline.
[12] abbreviates: endpoint: mean survival time, dose: 50.0 mg/kg/injection, schedule: Q01DX009 (ip), vehicle: saline with Tween-80.
Where [13] appears, read: endpoint: mean survival time, dose: 100.0 mg/kg/injection, schedule: Q04DX003 (ip), vehicle: saline.
The mark [14] stands for this setting: endpoint: mean survival time, dose: 200.0 mg/kg/injection, schedule: Q04DX003 (ip), vehicle: saline.

Toxic doses and inconclusive results are not listed. Starred links: 1 amine or outer side, 2 acyl side, 3 side chain; linkers in the order of their positions; H or OH if unused. Positions of bridges follow the written chain, without caps; N, C: chain ends. Non-standard residues stand in square brackets, D forms with d. Residues, ends and D or L forms follow the SMILES beside them. Chains are numbered I, II in the order given. Actinocin(1to9) = Cc1c2oc3c(C)ccc(C(=O)[*:2])c3nc-2c(C(=O)[*:1])c(N)c1=O; NMeV = CN[CH](C(=O)O)C(C)C; Aze = O=C(O)[CH]1CCN1; Sar = CNCC(=O)O

`O=C(O)c1ccccc1C(=O)OC1CCC2CCCCC2C1` (stereo not drawn): the T/C was 98 % of control under setting [1]; 97 % of control under setting [2]; 95 % of control under setting [3]; 92 % of control under setting [4]; 98 % of control (endpoint: mean survival time, dose: 400.0 mg/kg/injection, schedule: Q01DX009 (ip), vehicle: saline with Tween-80); 101 % of control under setting [5].
`O=C(/C=C/c1ccc(Cl)c(Cl)c1)/C=C/c1ccc(Cl)c(Cl)c1`: the T/C reads like this: under setting [6], 98 % of control; under setting [7], 94 % of control; under setting [8], 90 % of control.
As to `NCCCNC(=O)OCc1ccccc1`, the T/C is 105 % of control under setting [9], 102 % of control under setting [10] and 102 % of control under setting [11].
As for `COc1ccc(NC(=O)N(CCO)c2ccccc2)c(Cl)c1`, the T/C reads like this: under setting [6], 107 % of control; under setting [7], 104 % of control; under setting [8], 107 % of control.
As for `NCC(O)O.NCC(O)O.NCC(O)O.NCC(O)O.[Mo].[Mo]`, the T/C (endpoint: mean survival time, dose: 100.0 mg/kg/injection, schedule: Q01DX001 (ip), vehicle: saline with Tween-80) was 93 % of control; the T/C (endpoint: mean survival time, dose: 200.0 mg/kg/injection, schedule: Q01DX001 (ip), vehicle: saline with Tween-80) is 89 % of control; the T/C (endpoint: mean survival time, dose: 400.0 mg/kg/injection, schedule: Q01DX001 (ip), vehicle: saline with Tween-80) is 104 % of control.
As for `Nc1cccc(CCCCc2cccc(S(=O)(=O)F)c2)c1`, the T/C is 97 % of control under setting [12]; 95 % of control under setting [1]; 100 % of control under setting [2]; 97 % of control under setting [3]; 95 % of control under setting [4].
For the compound `CN(C)CCNC(=O)C(c1ccccc1)c1ccccc1`, the T/C under setting [2] is 104 % of control.
Take `CC(=O)NCCN`: the T/C (endpoint: mean survival time, dose: 50.0 mg/kg/injection, schedule: Q04DX003 (ip), vehicle: saline) was 101 % of control; the T/C under setting [13] was 95 % of control; the T/C under setting [14] is 97 % of control.
For the compound `CC/C=C(\C)CC(C)O` (stereo not drawn), the T/C is, setting by setting: (endpoint: mean survival time, dose: 25.0 mg/kg/injection, schedule: Q04DX002 (ip), vehicle: saline with Tween-80) 93 % of control; (endpoint: mean survival time, dose: 50.0 mg/kg/injection, schedule: Q04DX002 (ip), vehicle: saline with Tween-80) 89 % of control; (endpoint: mean survival time, dose: 100.0 mg/kg/injection, schedule: Q04DX002 (ip), vehicle: saline with Tween-80) 89 % of control.
Consider `Cc1cc(NS(=O)(=O)c2ccc(N=Nc3cc(N=Nc4ccc(S(=O)(=O)Nc5cc(C)nc(C)n5)cc4)c4c(NC(=O)C(Cl)Cl)cccc4c3OC(=O)C(Cl)Cl)cc2)nc(C)n1` (tested in a mixture with another compound), for which the T/C by setting is: (endpoint: median survival time, dose: 12.5 mg/kg/injection, schedule: Q01DX009 (ip), vehicle: suspension in saline) 103 % of control; (endpoint: median survival time, dose: 25.0 mg/kg/injection, schedule: Q01DX009 (ip), vehicle: suspension in saline) 103 % of control; (endpoint: median survival time, dose: 50.0 mg/kg/injection, schedule: Q01DX009 (ip), vehicle: suspension in saline) 98 % of control; (endpoint: median survival time, dose: 100.0 mg/kg/injection, schedule: Q01DX009 (ip), vehicle: suspension in saline) 104 % of control; (endpoint: median survival time, dose: 200.0 mg/kg/injection, schedule: Q01DX009 (ip), vehicle: suspension in saline) 104 % of control.
For the compound `O=[N+]([O-])c1ccc(C[n+]2ccccc2)cc1`, the T/C runs as follows: (endpoint: mean survival time, dose: 5.0 mg/kg/injection, schedule: Q01DX009 (ip), vehicle: saline) 87 % of control; (endpoint: mean survival time, dose: 5.0 mg/kg/injection, schedule: Q04DX003 (ip), vehicle: saline) 104 % of control; (endpoint: mean survival time, dose: 10.0 mg/kg/injection, schedule: Q01DX009 (ip), vehicle: saline) 90 % of control; (endpoint: mean survival time, dose: 10.0 mg/kg/injection, schedule: Q04DX003 (ip), vehicle: saline) 108 % of control; (endpoint: mean survival time, dose: 20.0 mg/kg/injection, schedule: Q01DX009 (ip), vehicle: saline) 95 % of control; (endpoint: mean survival time, dose: 20.0 mg/kg/injection, schedule: Q04DX003 (ip), vehicle: saline) 100 % of control.
For `Nc1ccc2ccc(N)cc2c1`, the T/C reads like this: (endpoint: median survival time, dose: 25.0 mg/kg/injection, schedule: Q01DX009 (ip), vehicle: saline with Tween-80) 98 % of control; (endpoint: median survival time, dose: 50.0 mg/kg/injection, schedule: Q01DX009 (ip), vehicle: saline with Tween-80) 100 % of control; (endpoint: median survival time, dose: 100.0 mg/kg/injection, schedule: Q01DX009 (ip), vehicle: saline with Tween-80) 100 % of control; (endpoint: median survival time, dose: 200.0 mg/kg/injection, schedule: Q01DX009 (ip), vehicle: saline with Tween-80) 105 % of control.
For `COc1ccc(Cc2cncc3cc(O)c(OC)cc23)cc1O`, the T/C runs as follows: under setting [9], 102 % of control; under setting [10], 96 % of control; under setting [11], 96 % of control.
As for `O=C1C=C(c2ccccc2)CC1`, the T/C is 104 % of control under setting [12], 93 % of control under setting [1], 101 % of control under setting [2] and 100 % of control under setting [4].
In the case of `Cc1ccc2c(c1)C(c1ccccc1)(c1ccccc1)OC2=O`, the T/C is, setting by setting: under setting [2], 98 % of control; under setting [4], 91 % of control; under setting [5], 95 % of control.
As for `O=C1c2cccc3c2C2(O)c4c1cccc4C(=O)c1cccc(c12)C3=O`, the T/C runs as follows: (endpoint: mean survival time, dose: 132.0 mg/kg/injection, schedule: Q01DX009 (ip), vehicle: saline with Tween-80) 104 % of control; under setting [3], 121 % of control.
As for `Cc1c2oc3c(C)ccc(C(=O)NC4C(=O)NC(C(C)C)C(=O)N5CCCC5C(=O)N(C)CC(=O)N(C)C(C(C)C)C(=O)OC4C)c3nc-2c(C(=O)NC2C(=O)NC(C(C)C)C(=O)N3CCC3C(=O)N(C)CC(=O)N(C)C(C(C)C)C(=O)OC2C)c(N)c1=O` (stereo not drawn) (I: TV[Aze][Sar][NMeV] / II: TVP[Sar][NMeV]; ester I:1-I:C, II:1-II:C; linker I:N-II:N via Actinocin(1to9); configuration not given here), the T/C by setting is: (endpoint: mean survival time, dose: 37.0 micrograms/kg/injection, schedule: Q01DX009 (ip), vehicle: saline + alcohol) 103 % of control; (endpoint: mean survival time, dose: 75.0 micrograms/kg/injection, schedule: Q01DX009 (ip), vehicle: saline + alcohol) 117 % of control; (endpoint: mean survival time, dose: 300.0 micrograms/kg/injection, schedule: Q01DX009 (ip), vehicle: saline + alcohol) 151 % of control; (endpoint: mean survival time, dose: 600.0 micrograms/kg/injection, schedule: Q01DX009 (ip), vehicle: saline + alcohol) 109 % of control; (endpoint: median survival time, dose: 12.5 micrograms/kg/injection, schedule: Q01DX009 (ip), vehicle: saline) 108 % of control; (endpoint: median survival time, dose: 25.0 micrograms/kg/injection, schedule: Q01DX009 (ip), vehicle: saline) 115 % of control. In addition, the T/C is 115 % of control (endpoint: median survival time, dose: 50.0 micrograms/kg/injection, schedule: Q01DX009 (ip), vehicle: saline); 123 % of control (endpoint: median survival time, dose: 100.0 micrograms/kg/injection, schedule: Q01DX009 (ip), vehicle: saline); 150 % of control (endpoint: median survival time, dose: 200.0 micrograms/kg/injection, schedule: Q01DX009 (ip), vehicle: saline); 91 % of control (endpoint: median survival time, dose: 400.0 micrograms/kg/injection, schedule: Q01DX009 (ip), vehicle: saline).
As for `CN(C)C(=O)c1ccc[n+](CC(=O)Nc2ccccc2)c1`, the T/C is, setting by setting: under setting [13], 103 % of control; under setting [14], 101 % of control; (endpoint: mean survival time, dose: 400.0 mg/kg/injection, schedule: Q04DX003 (ip), vehicle: saline) 103 % of control.
As for `Cc1nc2c(nc1C)C(=O)C(N1CCOCC1)=CC2=O`, the T/C by setting is: (endpoint: mean survival time, dose: 6.25 mg/kg/injection, schedule: Q04DX003 (ip), vehicle: saline) 100 % of control; (endpoint: mean survival time, dose: 12.5 mg/kg/injection, schedule: Q01DX001 (ip), vehicle: saline) 87 % of control; (endpoint: mean survival time, dose: 12.5 mg/kg/injection, schedule: Q04DX003 (ip), vehicle: saline) 100 % of control; (endpoint: mean survival time, dose: 25.0 mg/kg/injection, schedule: Q01DX001 (ip), vehicle: saline) 107 % of control; (endpoint: mean survival time, dose: 25.0 mg/kg/injection, schedule: Q04DX003 (ip), vehicle: saline) 98 % of control; (endpoint: mean survival time, dose: 35.0 mg/kg/injection, schedule: Q04DX003 (ip), vehicle: saline) 88 % of control. Further, the T/C is 91 % of control (endpoint: mean survival time, dose: 55.0 mg/kg/injection, schedule: Q04DX003 (ip), vehicle: saline) and 86 % of control (endpoint: mean survival time, dose: 80.0 mg/kg/injection, schedule: Q04DX003 (ip), vehicle: saline).
